SMILES strings stand for the structures. Some results are limits rather than exact numbers.

The test system of assay [1] is monocytic cell line THP-1. To be noted: cited from earlier work.
Another assay has as its system keratinocytes. The settings on record: cited from earlier work.
Assay [2] has as its system phosphorylation of eIF4E at ser209 in MV4.11 cell line. Put plainly: cells. The format is cell-based. To be noted: Homo sapiens; MV4.11 cells, 1.5 hr compound incubation, average of at least 2 independent experiments; read-out: plc50 elF4E (converted). The method, then: MNK activity in cells was measured by monitoring the phosphorylation of eIF4E at ser209, the known endogenous substrate of MNK1/2, in cell lysates. […] The assay detection is based on the formation of sandwich antibody complexes coupled to donor and acceptor beads. Excitation at 680 nm causes the transfer of a singlet oxygen species between donor and acceptor beads when they are in close proximity by binding to the analyte […], which results in the emission of light at 520-620 nm.
Cells were then lysed and the Aphascreen Surefire protocol followed according to manufacturer's recommendations. 8 ul Acceptor beads (1:50 dilution in kit activation buffer) was added to lysate, shaken 150 rpm for 2 min and incubated for 1.5 hr at room temperature. 3 ul Donor beads (1:20 dilution in kit dilution buffer) were then added, shaken 150 rpm for 2 min and incubated for a further 1.5 hr at room temperature after which the plates were read on Pherastar FS using Alphascreen optic module.
Data were normalised relative to untreated DMSO only controls and curves repeated in duplicate within experiments. Data reported are averages of at least 2 independent experiments.

Another assay deals with Full-length human MNK1 (Homo sapiens, UniProt Q9BUB5, T385D). As to the kind of experiment: MNK1 biochemical IC50 assay (Caliper mobility shift).
Another assay deals with Full-length human MNK2 (Homo sapiens, UniProt Q9HBH9, T379D). Put plainly: MNK2 biochemical IC50 assay (Caliper mobility shift).
A further assay relates to eIF4E phosphorylation. The settings on record: after oral administration, normal mouse tissues and xenografted tumors; cited from earlier work.
In another assay the test system is HCT116 xenograft. To be noted: HCT116 xenograft models; cited from earlier work.
Assay [3] deals with B16 melanoma lung metastases. The settings on record: in vivo; cited from earlier work.

Full-length human MNK1, sequence (Q9BUB5 1-424 isoform Q9BUB5-2 T344D): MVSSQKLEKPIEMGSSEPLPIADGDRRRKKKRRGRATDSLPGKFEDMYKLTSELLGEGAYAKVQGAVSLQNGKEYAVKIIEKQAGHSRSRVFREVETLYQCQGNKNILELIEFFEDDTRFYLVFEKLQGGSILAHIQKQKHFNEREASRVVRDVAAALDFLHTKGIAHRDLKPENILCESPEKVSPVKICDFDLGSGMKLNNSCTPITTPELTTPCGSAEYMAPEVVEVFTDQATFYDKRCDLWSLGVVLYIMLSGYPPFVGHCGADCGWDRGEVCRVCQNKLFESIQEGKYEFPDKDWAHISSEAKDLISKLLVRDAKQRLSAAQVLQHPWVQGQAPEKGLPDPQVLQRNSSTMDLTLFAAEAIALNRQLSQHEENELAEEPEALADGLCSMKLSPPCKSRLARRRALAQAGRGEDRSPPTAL
Full-length human MNK2, sequence (Q9HBH9 whole entry T379D): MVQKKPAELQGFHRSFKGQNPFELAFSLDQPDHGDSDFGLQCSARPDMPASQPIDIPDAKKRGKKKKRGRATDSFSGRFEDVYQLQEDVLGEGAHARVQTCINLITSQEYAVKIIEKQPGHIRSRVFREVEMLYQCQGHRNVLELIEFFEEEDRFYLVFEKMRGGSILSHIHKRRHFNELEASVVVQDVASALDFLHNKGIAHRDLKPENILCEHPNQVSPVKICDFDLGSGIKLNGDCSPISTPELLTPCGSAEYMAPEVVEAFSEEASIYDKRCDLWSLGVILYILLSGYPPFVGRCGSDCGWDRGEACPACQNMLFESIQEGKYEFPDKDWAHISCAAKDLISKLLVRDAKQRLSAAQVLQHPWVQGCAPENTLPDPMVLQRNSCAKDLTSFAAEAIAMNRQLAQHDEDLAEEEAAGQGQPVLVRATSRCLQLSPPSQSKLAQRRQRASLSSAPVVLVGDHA

Consider `Nc1ncnc2n[nH]c(Nc3ccc(F)cc3)c12` [CGP57380], for which the “block of release of IL-1β and IL-8 induced by Shiga toxin” value in assay [1] is 73-96%. In the assay on keratinocytes, the TNF-production entry is “reduced TNF-production”; the “expression of IL-1β and IL-6” value is listed as “decreased expression”.

`C[C@@H](CF)Oc1cc(F)ccc1Nc1ncnc2ccn(C)c12` [Example 22, N-[4-fluoro-2-[(1S)-2-fluoro-1-methyl-ethoxy]phenyl]-5-methyl-pyrrolo[3,2-d]pyrimidin-4-amine]: the IC50 is 15.8 nM in assay [2], 100 nM at Full-length human MNK1 and 50.1 nM at Full-length human MNK2.

For `C[C@H](CF)Oc1cc(F)ccc1Nc1ncnc2ccn(C)c12` [Example 23, N-[4-fluoro-2-[(1R)-2-fluoro-1-methyl-ethoxy]phenyl]-5-methyl-pyrrolo[3,2-d]pyrimidin-4-amine], the IC50 in assay [2] is 15.8 nM; on Full-length human MNK1 it was 126 nM; at Full-length human MNK2, 39.8 nM.

`Cn1ccc2ncnc(Nc3ccc(F)cc3OC3CC3)c21` [Example 24, N-[2-(cyclopropoxy)-4-fluoro-phenyl]-5-methyl-pyrrolo[3,2-d]pyrimidin-4-amine]: the figures for the IC50 (in assay [2]; on Full-length human MNK1; at Full-length human MNK2) were 79.4 nM, 501 nM and 200 nM, respectively.

Take `CC(C)Oc1cc(F)ccc1Nc1ncnc2ccn(C)c12` [Example 27, N-(4-fluoro-2-isopropoxy-phenyl)-5-methyl-pyrrolo[3,2-d]pyrimidin-4-amine]: the IC50 in assay [2] was 20 nM; on Full-length human MNK1, 126 nM; at Full-length human MNK2, 50.1 nM.

Take `CC(C)Oc1ccccc1Nc1ncnc2ccn(C)c12` [Example 28, N-(2-isopropoxyphenyl)-5-methyl-pyrrolo[3,2-d]pyrimidin-4-amine]: the IC50 was 39.8 nM in assay [2], 398 nM on Full-length human MNK1 and 158 nM at Full-length human MNK2.

On to `CC(C)Oc1ncccc1Nc1ncnc2ccn(C)c12` [Example 29, N-(2-isopropoxy-3-pyridyl)-5-methyl-pyrrolo[3,2-d]pyrimidin-4-amine], for which the IC50 in assay [2] was 50.1 nM; on Full-length human MNK1, 251 nM; on Full-length human MNK2, 100 nM.

In the case of `CCOc1cc(F)ccc1Nc1ncnc2ccn(C)c12` [Example 30, N-(2-ethoxy-4-fluoro-phenyl)-5-methyl-pyrrolo[3,2-d]pyrimidin-4-amine], the values for the IC50 (in assay [2]; at Full-length human MNK1; on Full-length human MNK2) were 63.1 nM, 200 nM and 126 nM, respectively.

As to `Cn1ccc2ncnc(Nc3ccc(F)cc3OCC(F)F)c21` [Example 31, N-[2-(2,2-difluoroethoxy)-4-fluoro-phenyl]-5-methyl-pyrrolo[3,2-d]pyrimidin-4-amine], the IC50 in assay [2] was 50.1 nM; on Full-length human MNK1 it was 316 nM; on Full-length human MNK2 it was 158 nM.

With `CC(C)Oc1c(Nc2ncnc3ccn(C)c23)ccc(F)c1F` [Example 32, N-(3,4-difluoro-2-isopropoxy-phenyl)-5-methyl-pyrrolo[3,2-d]pyrimidin-4-amine], the IC50 is 794 nM in assay [2], 2000 nM on Full-length human MNK1 and 1000 nM at Full-length human MNK2.

On to `CC(C)Oc1c(F)cccc1Nc1ncnc2ccn(C)c12` [Example 33, N-(3-fluoro-2-isopropoxy-phenyl)-5-methyl-pyrrolo[3,2-d]pyrimidin-4-amine], for which the IC50 in assay [2] is 25.1 nM; on Full-length human MNK1, 100 nM; at Full-length human MNK2, 50.1 nM.

`CCOc1ncccc1Nc1ncnc2ccn(C)c12` [Example 34, N-(2-ethoxy-3-pyridyl)-5-methyl-pyrrolo[3,2-d]pyrimidin-4-amine]: the IC50 in assay [2] was 126 nM; at Full-length human MNK1 it was 398 nM; on Full-length human MNK2 it was 251 nM.

Turning to `COc1ncccc1Nc1ncnc2ccn(C)c12` [Example 35, N-(2-methoxy-3-pyridyl)-5-methyl-pyrrolo[3,2-d]pyrimidin-4-amine], the IC50 was 1000 nM in assay [2], 1580 nM at Full-length human MNK1 and 1260 nM on Full-length human MNK2.

`Cn1ccc2ncnc(Nc3ccc(F)cc3O[C@H]3CCCC[C@@H]3O)c21` [Example 36, (1S,2S)-2-[5-fluoro-2-[(5-methylpyrrolo[3,2-d]pyrimidin-4-yl)amino]phenoxy]cyclohexanol]: the values for the IC50 (in assay [2]; on Full-length human MNK1; on Full-length human MNK2) were 39.8 nM, 794 nM and 251 nM, respectively.

As for `CO[C@H]1CCCC[C@@H]1Oc1cc(F)ccc1Nc1ncnc2ccn(C)c12` [Example 37, N-[4-fluoro-2-[(1S,2S)-2-methoxycyclohexoxy]phenyl]-5-methyl-pyrrolo[3,2-d]pyrimidin-4-amine], the IC50 is 251 nM in assay [2], 15800 nM on Full-length human MNK1 and 794 nM at Full-length human MNK2.

As for `CO[C@@H]1CCCC[C@H]1Oc1cc(F)ccc1Nc1ncnc2ccn(C)c12` [Example 38, N-[4-fluoro-2-[(1R,2R)-2-methoxycyclohexoxy]phenyl]-5-methyl-pyrrolo[3,2-d]pyrimidin-4-amine], the IC50 in assay [2] is 39.8 nM; at Full-length human MNK1, 2000 nM; at Full-length human MNK2, 316 nM.

With `CN(C)CCCNC(=O)c1cc2ncnc(N3CCc4cc(F)ccc43)c2[nH]1` [Example 39, N-[3-(dimethylamino)propyl]-4-(5-fluoroindolin-1-yl)-5H-pyrrolo[3,2-d]pyrimidine-6-carboxamide], the values for the IC50 (in assay [2]; at Full-length human MNK1; on Full-length human MNK2) were 25.1 nM, 12.6 nM and 12.6 nM, respectively.

In the case of `CC(C)Oc1cc(F)ccc1Nc1ncnc2cc(C(=O)NCCN3CCNCC3)n(C)c12` [Example 42, 4-{[4-Fluoro-2-(propan-2-yloxy)phenyl]amino}-5-methyl-N-[2-(piperazin-1-yl)ethyl]-5H-pyrrolo[3,2-d]pyrimidine-6-carboxamide], the IC50 in assay [2] was 100 nM; at Full-length human MNK1, 50.1 nM; on Full-length human MNK2 it was 50.1 nM.

In the case of `CC(C)Oc1cc(F)ccc1Nc1ncnc2c(Cl)c(C(=O)NCCCN(C)C)n(C)c12` [Example 43, 7-Chloro-N-[3-(dimethylamino)propyl]-4-{[4-fluoro-2-(propan-2-yloxy)phenyl]amino}-5-methyl-5H-pyrrolo[3,2-d]pyrimidine-6-carboxamide], the IC50 was 794 nM in assay [2], 1260 nM on Full-length human MNK1 and 1000 nM on Full-length human MNK2.

With `CC(C)Oc1cc(F)ccc1Nc1ncnc2cc(C(=O)NCCCN(C)C)[nH]c12` [Example 44, N-[3-(dimethylamino)propyl]-4-(4-fluoro-2-isopropoxy-anilino)-5H-pyrrolo[3,2-d]pyrimidine-6-carboxamide], the IC50 in assay [2] was 63.1 nM; on Full-length human MNK1, 79.4 nM; at Full-length human MNK2 it was 63.1 nM.

For `CC(C)Oc1cc(F)ccc1Nc1ncnc2cc[nH]c12` [Example 45, N-(4-fluoro-2-isopropoxy-phenyl)-5H-pyrrolo[3,2-d]pyrimidin-4-amine], the IC50 in assay [2] was 501 nM; at Full-length human MNK1, 126 nM; at Full-length human MNK2 it was 79.4 nM.

For the molecule `CC(=O)C1=C(O)C=C2Oc3c(C(N)=O)c(O)cc(O)c3[C@]2(C)C1=O` [cercosporamide], the “time to effectively block eIF4E phosphorylation” value in the assay on eIF4E phosphorylation was ≤ 30 min. Moreover, in the assay with HCT116 xenograft, the tumor growth result is “reducing tumor growth”. Moreover, in assay [3], the “outgrowth of B16 melanoma lung metastases” value is “suppressing the outgrowth”.

These data come from US10604524B2, “Pyrropyrimidine compounds as MNKs inhibitors” (LIFEARC, priority 2015, dated 2020).
